The text below walks through data of article PMC4561207 (Child's nervous system : ChNS : official journal of the …, 2015).

The nature of data set [1]: Steady-state plasma pharmacokinetics, day 28 of course 1. It is filed as in vivo, human.
The subject of data set [2] is progressive glioblastoma multiforme. Particulars: adults, therapy initiated at 45mg; cited from earlier work.
For data set [3] the following is noted: adults treated with a 5 mg flat dose; cited from earlier work.

As a reminder, the Tmax is the time at which the peak concentration occurs. By AUC is commonly meant the area under the concentration-time curve, a measure of exposure. A higher AUC goes with high exposure. Regarding `COc1cc2c(Oc3ccc4[nH]c(C)cc4c3F)ncnc2cc1OCCCN1CCCC1` [cediranib, Cediranib], the “Css,min, median” value in data set [1] (20mg/m^2 QD, day 28 pre-dose trough) came out at 11.5 ng/mL. Further, the “Css,max, median” value in data set [1] (day 28, steady state, plasma) is given as 48.0 ng/mL. Besides, the Tmax in data set [1] (human, plasma, oral) was 2 to 6 h. For the same compound, the AUC is 892 ng·h/mL in data set [1] (human, plasma, oral, 32 mg/m2, steady-state AUC0—tlast, 32mg/m^2 QD, n=2); 522 to 1260 ng·h/mL in data set [1] (human, plasma, oral, 32 mg/m2, steady-state AUC0—tlast, range, 32mg/m^2 QD, n=2); 770 ng·h/mL in data set [1] (human, plasma, oral, 40 mg/m2, steady-state AUC0—tlast, 40mg/m^2 QD, n=1). Further, in data set [2], the 6-month progression-free survival was 26%. The “radiographic response, patients” value in data set [2] is recorded as 57%. Moreover, the “steady-state systemic exposure (AUC)” value in data set [3] was 226 ng·h/mL.
